Reference: ChEMBL document CHEMBL5214933, “Discovery of Selenium-Containing STING Agonists as Orally Available Antitumor Agents” (J Med Chem, 2022)
≈ marks a conversion by molar mass, not a printed value. Calls of active or inactive are those of the source. The rule behind the calls is not given here.

Assays:
[1] = tested on: Stimulator of interferon genes protein (Homo sapiens), Q86WV6 [UNDEFINED MUTATION]; assay: Binding affinity to recombinant human STING H232 variant expressed in Escherichia coli BL21 (DE3) assessed as thermal stabilization by measuring change in melting temperature at 2 mM incubated for 30 mins by SYPRO orange dye based differential scanning fluorimetry assay
Chain of Stimulator of interferon genes protein (Homo sapiens), Q86WV6 [UNDEFINED MUTATION] (Q86WV6 whole entry, looked up, stated change not applied): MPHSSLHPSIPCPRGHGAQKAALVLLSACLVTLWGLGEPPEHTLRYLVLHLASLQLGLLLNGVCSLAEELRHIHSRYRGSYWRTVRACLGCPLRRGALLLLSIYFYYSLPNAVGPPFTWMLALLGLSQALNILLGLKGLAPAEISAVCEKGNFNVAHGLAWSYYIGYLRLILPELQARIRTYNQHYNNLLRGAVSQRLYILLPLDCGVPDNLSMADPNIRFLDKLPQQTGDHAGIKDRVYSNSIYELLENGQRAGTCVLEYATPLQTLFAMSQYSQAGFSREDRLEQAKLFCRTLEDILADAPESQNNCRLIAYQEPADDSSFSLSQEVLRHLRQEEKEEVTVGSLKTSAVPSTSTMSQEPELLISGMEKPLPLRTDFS

[2] = biological target: T1, Stimulator of interferon genes protein (Homo sapiens, UniProt Q86WV6); assay: Agonist activity at STING in human THP-1 cells harboring IRF-inducible luciferase reporter construct assessed as fold change in ISG signalling at 20 uM incubated for 12 hrs by Quanti-luc reagent based assay relative to control; type: cell-based; conditions: filed as agonist
T1 sequence (Q86WV6 whole entry): as the sequence (Q86WV6 whole entry, looked up, stated change not applied) above

[3] = Aqueous solubility of compound at 3 mg incubated for 24 hrs under shaking condition by RP-HPLC analysis; type: physicochemical; conditions: water
[4] = Solubility of compound in PBS buffer at pH 7.4 at 3 mg incubated for 24 hrs under shaking condition by RP-HPLC analysis; type: physicochemical
[5] = Lipophilicity, logP of compound by RP-HPLC analysis; type: physicochemical
[6] = Permeability of the compound in PBS buffer incubated for 5 hrs by PAMPA-based LC-MS/MS analysis; type: ADME; conditions: read-out: permeability
[7] = Protein binding in plasma (unknown origin) assessed as unbound fraction at 2 uM incubated for 4 hrs under shaking condition by rapid equilibrium dialysis method; type: ADME, cell-free
[8] = Stability in rat liver microsomes assessed as parent compound remaining at 1 uM incubated for 2 hrs in presence of NADPH by LC-MS/MS analysis; type: ADME, Microsome; conditions: read-out: Stability
[9] = Stability in human plasma assessed as parent compound remaining at 1 uM incubated for 24 hrs in presence of NADPH by LC-MS/MS analysis; type: ADME, cell-free; conditions: read-out: Stability
CYP3A4 = CYP3A4 (Homo sapiens, UniProt P08684); assay: Inhibition of recombinant CYP3A4 (unknown origin) using midazolam as substrate assessed as reduction in substrate hydroxylation at 10 uM incubated for 5 mins in presence of NADPH by LC-MS/MS analysis relative to control; type: ADME; conditions: recombinant CYP3A4, probe midazolam
Chain of CYP3A4 (P08684 whole entry): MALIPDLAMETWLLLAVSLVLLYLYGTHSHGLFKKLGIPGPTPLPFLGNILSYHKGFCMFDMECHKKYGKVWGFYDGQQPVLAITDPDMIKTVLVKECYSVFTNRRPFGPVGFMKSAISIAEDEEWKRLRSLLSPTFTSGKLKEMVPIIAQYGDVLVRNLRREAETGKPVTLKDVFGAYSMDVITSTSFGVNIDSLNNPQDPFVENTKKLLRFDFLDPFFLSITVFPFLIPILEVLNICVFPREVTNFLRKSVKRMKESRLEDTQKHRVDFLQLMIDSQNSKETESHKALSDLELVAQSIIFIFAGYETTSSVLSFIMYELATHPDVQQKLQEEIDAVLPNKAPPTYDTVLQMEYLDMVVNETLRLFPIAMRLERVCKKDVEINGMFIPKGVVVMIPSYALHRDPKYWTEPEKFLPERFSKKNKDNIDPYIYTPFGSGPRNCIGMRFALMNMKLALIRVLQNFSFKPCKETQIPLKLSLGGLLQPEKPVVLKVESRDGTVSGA

hERG = hERG (Homo sapiens, UniProt Q12809); assay: Inhibition of hERG expressed in HEK293 cells at 10 uM incubated for 5 mins by QPatch automated patch-clamp technique relative to control; type: toxicity, cell-based; conditions: HEK293 cells that express hERG
Chain of hERG (Q12809 whole entry): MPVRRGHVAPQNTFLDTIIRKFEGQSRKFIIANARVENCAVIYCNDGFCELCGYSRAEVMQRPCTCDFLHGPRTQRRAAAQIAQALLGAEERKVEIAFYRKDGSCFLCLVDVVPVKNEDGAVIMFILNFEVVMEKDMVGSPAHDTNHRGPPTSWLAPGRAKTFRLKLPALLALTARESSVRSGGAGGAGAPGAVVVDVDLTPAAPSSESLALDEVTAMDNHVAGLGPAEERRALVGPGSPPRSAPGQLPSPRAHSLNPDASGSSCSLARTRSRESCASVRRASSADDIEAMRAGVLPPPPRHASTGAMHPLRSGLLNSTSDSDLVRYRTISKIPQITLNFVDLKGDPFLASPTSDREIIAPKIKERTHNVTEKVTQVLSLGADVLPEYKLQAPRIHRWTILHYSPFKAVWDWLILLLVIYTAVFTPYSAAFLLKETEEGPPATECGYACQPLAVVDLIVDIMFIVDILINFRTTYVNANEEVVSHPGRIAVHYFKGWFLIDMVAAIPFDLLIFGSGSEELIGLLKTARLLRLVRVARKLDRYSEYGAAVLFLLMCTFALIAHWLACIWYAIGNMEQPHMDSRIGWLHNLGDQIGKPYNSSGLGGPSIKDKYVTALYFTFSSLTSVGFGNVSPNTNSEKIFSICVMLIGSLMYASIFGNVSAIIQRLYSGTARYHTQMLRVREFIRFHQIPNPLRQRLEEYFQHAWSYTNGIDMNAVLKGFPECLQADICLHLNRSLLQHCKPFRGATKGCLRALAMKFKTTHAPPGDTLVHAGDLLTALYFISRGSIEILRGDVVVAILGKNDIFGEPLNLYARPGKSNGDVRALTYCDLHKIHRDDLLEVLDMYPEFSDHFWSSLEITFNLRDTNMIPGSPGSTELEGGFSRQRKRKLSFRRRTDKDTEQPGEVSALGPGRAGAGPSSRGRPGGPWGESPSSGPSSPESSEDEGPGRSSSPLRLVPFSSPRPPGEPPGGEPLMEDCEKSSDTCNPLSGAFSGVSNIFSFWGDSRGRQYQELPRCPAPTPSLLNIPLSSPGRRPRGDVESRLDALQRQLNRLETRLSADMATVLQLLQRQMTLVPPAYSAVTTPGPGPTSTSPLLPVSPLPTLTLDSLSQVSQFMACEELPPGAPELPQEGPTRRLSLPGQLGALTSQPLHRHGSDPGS

[10] = Cmax in Sprague-Dawley rat at 50 mg/kg, po measured for 1440 mins by LC-MS/MS analysis; type: ADME, organism-based; set-up: time 1440 min, dose 50 mg/kg, route po; conditions: in vivo
[11] = AUC (0 to infinity) in Sprague-Dawley rat at 50 mg/kg, po measured for 1440 mins by LC-MS/MS analysis; type: ADME, organism-based; set-up: time 1440 min, dose 50 mg/kg, route po; conditions: in vivo
[12] = AUC (0 to infinity) in Sprague-Dawley rat at 5 mg/kg, iv measured for 1440 mins by LC-MS/MS analysis; type: ADME, organism-based; set-up: dose 5 mg/kg, time 1440 min, route iv; conditions: in vivo
[13] = Half life in Sprague-Dawley rat at 50 mg/kg, po measured for 1440 mins by LC-MS/MS analysis; type: ADME, organism-based; conditions: in vivo
[14] = Half life in Sprague-Dawley rat at 5 mg/kg, iv measured for 1440 mins by LC-MS/MS analysis; type: ADME, organism-based; conditions: in vivo
[15] = Volume of distribution at steady state in Sprague-Dawley rat at 50 mg/kg, po measured for 1440 mins by LC-MS/MS analysis; type: ADME, organism-based; conditions: in vivo, 24 h
[16] = Volume of distribution at steady state in Sprague-Dawley rat at 5 mg/kg, iv measured for 1440 mins by LC-MS/MS analysis; type: ADME, organism-based; conditions: in vivo, read-out: Vdss
[17] = Clearance in Sprague-Dawley rat at 50 mg/kg, po measured for 1440 mins by LC-MS/MS analysis; type: ADME, organism-based; conditions: in vivo
[18] = Clearance in Sprague-Dawley rat at 5 mg/kg, iv measured for 1440 mins by LC-MS/MS analysis; type: ADME, organism-based; conditions: in vivo
[19] = Oral bioavailability in Sprague-Dawley rat at 50 mg/kg measured for 1440 mins by LC-MS/MS analysis; type: ADME, organism-based; conditions: in vivo
4T1 [20] = assay: Antitumor activity against mouse 4T1 cells implanted in naive BALB/c mouse assessed as increase in Ki67-positive CD4 T cells in tumor at 80 mg/kg, po administered once every 5 days by FACS analysis (reference value: 4.4%); type: functional; conditions: time 5 day
4T1 [21] = assay: Antitumor activity against mouse 4T1 cells implanted in naive BALB/c mouse assessed as increase in Ki67-positive CD8 T cells in tumor at 80 mg/kg, po administered once every 5 days by FACS analysis (reference value: 14%); type: functional; conditions: time 5 day
[22] = tested on: Stimulator of interferon genes protein (Homo sapiens), Q86WV6 [UNDEFINED MUTATION]; assay: Binding affinity to recombinant human STING R232 variant expressed in Escherichia coli BL21 (DE3) assessed as thermal stabilization by measuring change in melting temperature at 0.1 mM incubated for 30 mins by SYPRO orange dye based differential scanning fluorimetry assay
[23] = tested on: Stimulator of interferon genes protein (Homo sapiens), Q86WV6 [UNDEFINED MUTATION]; assay: Binding affinity to recombinant human STING AQ variant expressed in Escherichia coli BL21 (DE3) assessed as thermal stabilization by measuring change in melting temperature at 0.1 mM incubated for 30 mins by SYPRO orange dye based differential scanning fluorimetry assay
[24] = biological target: T1, Stimulator of interferon genes protein; assay: Agonist activity at STING in human THP-1 cells harboring IRF-inducible luciferase reporter construct assessed as increase in ISG signalling incubated for 12 hrs by Quanti-luc reagent based assay; type: cell-based
[25] = biological target: T1, Stimulator of interferon genes protein; assay: Agonist activity at STING in cGAS knockout human THP-1 cells harboring IRF-inducible luciferase reporter construct assessed as increase in ISG signalling at 20 uM incubated for 12 hrs by Quanti-luc reagent based assay; type: cell-based; conditions: filed as agonist
[26] = biological target: T2, Stimulator of interferon genes protein (Mus musculus) (UniProt Q3TBT3); assay: Agonist activity at STING in mouse RAW264.7 cells harboring IRF-inducible luciferase reporter construct assessed as increase in ISG signalling at 20 uM incubated for 12 hrs by Quanti-luc reagent based assay; type: cell-based; conditions: filed as agonist
T2 sequence (whole entry): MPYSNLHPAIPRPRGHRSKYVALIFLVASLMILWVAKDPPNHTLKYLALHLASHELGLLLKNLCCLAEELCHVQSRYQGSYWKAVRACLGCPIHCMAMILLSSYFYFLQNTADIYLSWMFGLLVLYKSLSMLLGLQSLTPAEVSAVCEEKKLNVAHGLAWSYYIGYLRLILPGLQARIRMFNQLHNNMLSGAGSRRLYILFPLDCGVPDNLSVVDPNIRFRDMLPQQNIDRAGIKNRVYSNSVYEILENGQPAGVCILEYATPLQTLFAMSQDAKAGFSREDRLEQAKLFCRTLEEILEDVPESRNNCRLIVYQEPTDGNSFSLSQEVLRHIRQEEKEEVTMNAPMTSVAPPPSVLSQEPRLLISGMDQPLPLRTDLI

SMILES: COc1cc2cc(C(=O)CC(C)C(N)=O)[se]c2cc1OC (racemic)
- ΔTm [1]: -0.8 °C

SMILES: COc1ccc2[se]c(C(=O)CC(C)C(=O)O)cc2c1 (racemic)
- ΔTm [1]: -0.3 °C

SMILES: CCC(CC(=O)c1cc2cc(OC)c(OC)cc2s1)C(=O)O (racemic)
- fold change (FC) [2]: 18
- ΔTm [1]: 4.7 °C

SMILES: COc1cc2cc(C(=O)CCC(=O)O)[se]c2cc1OC
- fold change (FC) [2]: 2
- ΔTm [1]: -1.1 °C

SMILES: CC(CC(=O)c1cc2cc3c(cc2[se]1)OCO3)C(=O)O (racemic)
- ΔTm [1]: -0.5 °C

SMILES: COc1cc2cc(C(=O)CCC(=O)O)sc2cc1OC
- solubility thermodynamic at 24 h [3]: 6 µg/mL (≈ 20.4 µM)
- solubility thermodynamic at 24 h [4]: 300 µg/mL (≈ 1020 µM)
- logP [5]: 1.5
- Papp at 5 h [6]: 1.7 ×10⁻⁶ cm/s
- Fu [7]: 0.19%
- remaining at 2 h, 1 µM [8]: 87%
- remaining at 24 h, 1 µM [9]: 100%
- inhibition at 5 min, 10 µM (CYP3A4): 7.59%
- inhibition at 5 min, 10 µM (hERG): 0.86%
- Cmax [10]: 23300 ng/mL
- AUC(0-inf) [11]: 56800 ng·h/mL
- AUC(0-inf) [12]: 9800 ng·h/mL
- half-life [13]: 1.65 h
- half-life [14]: 1.71 h
- Vdss [15]: 2.18 L/kg
- Vd [16]: 1.28 L/kg
- CL/F [17]: 15.2 mL/min/kg
- clearance [18]: 8.5 mL/min/kg
- bioavailability [19]: 58%
- Activity (4T1 [20]): 5.5%
- Activity (4T1 [21]): 7.7%
- fold change (FC) [2]: 32
- ΔTm [1]: 3.9 °C
- ΔTm [22]: 9.1 °C
- ΔTm [23]: 23.3 °C

SMILES: COc1cc2cc(C(=O)C3CCC3C(=O)O)[se]c2cc1OC (racemic)
- fold change (FC) [2]: 24
- ΔTm [1]: 9.1 °C

SMILES: CCCC(CC(=O)c1cc2cc(OC)c(OC)cc2[se]1)C(=O)O (racemic)
- fold change (FC) [2]: 14
- ΔTm [1]: -1.2 °C

SMILES: COc1cc2cc(C(=O)CC(C)(C)C(=O)O)[se]c2cc1OC
- fold change (FC) [2]: 5
- ΔTm [1]: -1.5 °C

SMILES: COc1cc2cc(C(=O)C3CC3C(=O)O)[se]c2cc1OC (racemic)
- fold change (FC) [2]: 7
- ΔTm [1]: 6.2 °C

SMILES: COc1ccc2cc(C(=O)CC(C)C(=O)O)[se]c2c1 (racemic)
- ΔTm [1]: -0.1 °C

SMILES: CCC(CC(=O)c1cc2cc(OC)c(OC)cc2[se]1)C(=O)O (racemic)
- fold change (FC) [2]: 27
- ΔTm [1]: 4.5 °C

SMILES: COc1cc2cc(C(=O)CC(C)C(=O)O)[se]c2cc1OC (racemic)
- fold change (FC) [2]: 15
- ΔTm [1]: 2.7 °C
- EC50 [24]: 21.3 µM
- Activity [25]: Active
- Activity [26]: Active

SMILES: CCC(CC(=O)c1cc2cc(OC)c(OC)cc2o1)C(=O)O (racemic)
- ΔTm [1]: -0.1 °C

SMILES: CCC(=O)C(C)CC(=O)c1cc2cc(OC)c(OC)cc2[se]1 (stereo not given)
- fold change (FC) [2]: 15
- ΔTm [1]: -0.2 °C

SMILES: COc1cc2cc(C(=O)CC(C(=O)O)C(C)C)[se]c2cc1OC (racemic)
- fold change (FC) [2]: 10
- ΔTm [1]: -1.9 °C

SMILES: COCC(CC(=O)c1cc2cc(OC)c(OC)cc2[se]1)C(=O)O (racemic)
- fold change (FC) [2]: 7
- ΔTm [1]: 0.9 °C
